Reference: ChEMBL document CHEMBL1909294, “Translating clinical findings into knowledge in drug safety evaluation--drug induced liver injury prediction system (DILIps)” (PLoS Comput Biol, 2011)

Experiments:
Hepatotoxicity [1] = tested on: Hepatotoxicity;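 as to HepSE bilirubinemia: bilirubinemia hepatic side effect score drawn from the DILIps training data, a prediction system for drug-induced liver injury; call rule not given here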;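 as to HepSE cholecystitis: Cholecystitis-related hepatic side effect score drawn from the DILIps (drug-induced liver injury prediction) training data set; call rule not given here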;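 as to HepSE cholelithiasis: hepatic side effect score for cholelithiasis, drawn from the DILIps training data for predicting drug-induced liver injury; call rule not given here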;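 as to HepSE cirrhosis: cirrhosis hepatic side effect score taken from the DILIps (drug-induced liver injury prediction) training set; call rule not given here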;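 as to HepSE elevated liver function tests: hepatic side effect score for raised liver function tests, as recorded in the DILIps training set used for predicting drug-induced liver injury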; as to HepSE hepatic failure: call rule not given here;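 as to HepSE hepatomegaly: hepatic side effect score for hepatomegaly, taken from the training set of the DILIps drug-induced liver injury prediction system; call rule not given here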
Hepatotoxicity [2] = tested on: Hepatotoxicity; remark: listed apart in the source;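 as to HepSE bilirubinemia: bilirubinemia hepatic side effect score drawn from the DILIps training data, a prediction system for drug-induced liver injury; call rule not given here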;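 as to HepSE cholecystitis: Cholecystitis-related hepatic side effect score drawn from the DILIps (drug-induced liver injury prediction) training data set; call rule not given here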;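 as to HepSE cholelithiasis: hepatic side effect score for cholelithiasis, drawn from the DILIps training data for predicting drug-induced liver injury; call rule not given here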;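 as to HepSE cirrhosis: cirrhosis hepatic side effect score taken from the DILIps (drug-induced liver injury prediction) training set; call rule not given here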;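 as to HepSE elevated liver function tests: hepatic side effect score for raised liver function tests, as recorded in the DILIps training set used for predicting drug-induced liver injury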; as to HepSE hepatic failure: call rule not given here
Hepatotoxicity [3] = tested on: Hepatotoxicity; remark: listed apart in the source;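 as to HepSE bilirubinemia: bilirubinemia hepatic side effect score drawn from the DILIps training data, a prediction system for drug-induced liver injury; call rule not given here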;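 as to HepSE cholecystitis: Cholecystitis-related hepatic side effect score drawn from the DILIps (drug-induced liver injury prediction) training data set; call rule not given here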;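 as to HepSE cholelithiasis: hepatic side effect score for cholelithiasis, drawn from the DILIps training data for predicting drug-induced liver injury; call rule not given here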;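 as to HepSE cirrhosis: cirrhosis hepatic side effect score taken from the DILIps (drug-induced liver injury prediction) training set; call rule not given here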;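 as to HepSE elevated liver function tests: hepatic side effect score for raised liver function tests, as recorded in the DILIps training set used for predicting drug-induced liver injury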; as to HepSE hepatic failure: call rule not given here
Hepatotoxicity [4] = tested on: Hepatotoxicity; remark: listed apart in the source;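 as to HepSE bilirubinemia: bilirubinemia hepatic side effect score drawn from the DILIps training data, a prediction system for drug-induced liver injury; call rule not given here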;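 as to HepSE cholecystitis: Cholecystitis-related hepatic side effect score drawn from the DILIps (drug-induced liver injury prediction) training data set; call rule not given here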;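 as to HepSE cholelithiasis: hepatic side effect score for cholelithiasis, drawn from the DILIps training data for predicting drug-induced liver injury; call rule not given here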;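 as to HepSE cirrhosis: cirrhosis hepatic side effect score taken from the DILIps (drug-induced liver injury prediction) training set; call rule not given here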;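 as to HepSE elevated liver function tests: hepatic side effect score for raised liver function tests, as recorded in the DILIps training set used for predicting drug-induced liver injury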; as to HepSE hepatic failure: call rule not given here
Hepatotoxicity [5] = tested on: Hepatotoxicity; remark: listed apart in the source; as to HepSE hepatic failure: call rule not given here
Hepatotoxicity [6] = tested on: Hepatotoxicity; remark: listed apart in the source; as to HepSE hepatic failure: call rule not given here
Hepatotoxicity [7] = tested on: Hepatotoxicity; remark: listed apart in the source
Hepatotoxicity [8] = tested on: Hepatotoxicity; remark: listed apart in the source
Hepatotoxicity [9] = tested on: Hepatotoxicity; remark: listed apart in the source
Hepatotoxicity [10] = tested on: Hepatotoxicity; remark: listed apart in the source
Hepatotoxicity [11] = tested on: Hepatotoxicity; remark: listed apart in the source
Hepatotoxicity [12] = tested on: Hepatotoxicity; remark: listed apart in the source
Hepatotoxicity [13] = tested on: Hepatotoxicity; remark: listed apart in the source
Hepatotoxicity [14] = tested on: Hepatotoxicity; remark: listed apart in the source

Structure (SMILES)	HepSE_bilirubinemia (Hepatotoxicity [1])	HepSE_cholecystitis (Hepatotoxicity [2])	HepSE_cholelithiasis (Hepatotoxicity [3])	HepSE_cirrhosis (Hepatotoxicity [4])	HepSE_elevated liver function tests (Hepatotoxicity [5])	HepSE_hepatic failure (Hepatotoxicity [6])	HepSE_hepatic necrosis (Hepatotoxicity [7])	HepSE_hepatitis (Hepatotoxicity [8])	HepSE_hepatomegaly (Hepatotoxicity [9])	HepSE_jaundice (Hepatotoxicity [10])	HepSE_liver disease (Hepatotoxicity [11])	HepSE_liver fatty (Hepatotoxicity [12])	HepSE_liver function tests abnormal (Hepatotoxicity [13])	HepSE_Combined Scores (Hepatotoxicity [14])	other results
CC(CN1c2ccccc2Sc2ccccc21)N(C)C (configuration not stated) [PROMETHAZINE]	0	0	0	0	0	0	0	0	0	1	0	0	0	1	–
O=C1CN(/N=C/c2ccc([N+](=O)[O-])o2)C(=O)N1 [NITROFURANTOIN]	–	–	–	–	–	–	–	–	–	–	–	–	–	–	HepSE_bilirubinemia (Hepatotoxicity [1]; Liver): 0; HepSE_cholecystitis (Hepatotoxicity [2]; Liver): 0; HepSE_cholelithiasis (Hepatotoxicity [3]; Liver): 0; HepSE_cirrhosis (Hepatotoxicity [4]; Liver): 0; HepSE_elevated liver function tests (Hepatotoxicity [5]; Liver): 0; HepSE_hepatic failure (Hepatotoxicity [6]; Liver): 0; HepSE_hepatic necrosis (Hepatotoxicity [7]; Liver): 1; HepSE_hepatitis (Hepatotoxicity [8]; Liver): 1; HepSE_hepatomegaly (Hepatotoxicity [9]; Liver): 0; HepSE_jaundice (Hepatotoxicity [10]; Liver): 1; HepSE_liver disease (Hepatotoxicity [11]; Liver): 0; HepSE_liver fatty (Hepatotoxicity [12]; Liver): 0; HepSE_liver function tests abnormal (Hepatotoxicity [13]; Liver): 0; HepSE_Combined Scores (Hepatotoxicity [14]; Liver): 3
CCCN(CCC)CCc1cccc2c1CC(=O)N2 [ROPINIROLE]	1	1	1	0	0	0	0	1	0	0	0	0	0	4	–
CC(=O)NC[C@H]1CN(c2ccc(N3CCOCC3)c(F)c2)C(=O)O1 [LINEZOLID]	0	0	0	0	0	0	0	0	0	1	0	0	1	2	–
Cc1[nH]c(=O)c(C#N)cc1-c1ccncc1 [MILRINONE]	0	0	0	0	0	0	0	0	0	0	0	0	0	0	–
Cn1cnc([N+](=O)[O-])c1Sc1ncnc2nc[nH]c12 [AZATHIOPRINE]	–	–	–	–	–	–	–	–	–	–	–	–	–	–	HepSE_bilirubinemia (Hepatotoxicity [1]; Liver): 0; HepSE_cholecystitis (Hepatotoxicity [2]; Liver): 0; HepSE_cholelithiasis (Hepatotoxicity [3]; Liver): 0; HepSE_cirrhosis (Hepatotoxicity [4]; Liver): 0; HepSE_elevated liver function tests (Hepatotoxicity [5]; Liver): 0; HepSE_hepatic failure (Hepatotoxicity [6]; Liver): 0; HepSE_hepatic necrosis (Hepatotoxicity [7]; Liver): 0; HepSE_hepatitis (Hepatotoxicity [8]; Liver): 0; HepSE_hepatomegaly (Hepatotoxicity [9]; Liver): 0; HepSE_jaundice (Hepatotoxicity [10]; Liver): 0; HepSE_liver disease (Hepatotoxicity [11]; Liver): 0; HepSE_liver fatty (Hepatotoxicity [12]; Liver): 0; HepSE_liver function tests abnormal (Hepatotoxicity [13]; Liver): 0; HepSE_Combined Scores (Hepatotoxicity [14]; Liver): 0
CC(N)Cc1c[nH]c2ccccc12 (configuration not stated)	0	0	0	0	0	0	0	0	0	0	0	0	0	0	–
CCC(=O)O[C@]1(C(=O)CCl)[C@@H](C)C[C@H]2[C@@H]3C[C@H](F)C4=CC(=O)C=C[C@]4(C)[C@@]3(F)[C@@H](O)C[C@@]21C [HALOBETASOL PROPIONATE]	0	0	0	0	0	0	0	0	0	0	0	0	0	0	–
O=C(OOC(=O)c1ccccc1)c1ccccc1 [BENZOYL PEROXIDE]	0	0	0	0	0	0	0	0	0	0	0	0	0	0	–
CN1CCN(CCCN2c3ccccc3Sc3ccc(Cl)cc32)CC1 [PROCHLORPERAZINE]	0	0	0	0	0	0	0	0	0	1	0	0	0	1	–
Cc1ccccc1C(OCCN(C)C)c1ccccc1 (configuration not stated) [ORPHENADRINE]	0	0	0	0	–	0	0	0	0	0	0	0	–	0	HepSE_elevated liver function tests (Hepatotoxicity [5]; Liver): 0; HepSE_liver function tests abnormal (Hepatotoxicity [13]; Liver): 0
CCN[C@H]1C[C@H](C)S(=O)(=O)c2sc(S(N)(=O)=O)cc21 [DORZOLAMIDE]	0	0	0	0	0	0	0	0	1	0	0	0	0	1	–
C=C1/C(=C\C=C2/CCC[C@]3(C)[C@@H]([C@H](C)/C=C/[C@@H](O)C4CC4)CC[C@@H]23)C[C@@H](O)C[C@@H]1O [CALCIPOTRIENE]	0	0	0	0	0	0	0	0	0	0	0	0	0	0	–
